# Assay results from patent publication US11491155B2, “Salt of a pyrimido[6,1-A]isoquinolin-4-one compound” (VERONA PHARMA PLC, priority 2015, dated 2022).
# Counter-ions that a name gives are not always drawn.
# Assays:
# [1] = Physico-chemical characteristics of salt candidates: solubility in water, pH of aqueous suspension/solution, form post water maturation
# Method: The physico-chemical characteristics of the salt candidates were determined.
# [2] = Solubility of RPL554 salts in saline solutions, water and aqueous buffer solutions at 25° C. (HPLC); type: physicochemical; settings: for Solubility as RPL554 (mg/ml) in 0.7 w/w % Saline / Solubility as RPL554 (mg/ml) in 0.9 w/w % Saline / Solubility as RPL554 (mg/ml) in 1.1 w/w % Saline / Solubility as RPL554 (mg/ml) in Water: 24 hours; for Solubility as RPL554 (mg/ml) in Water: deionised water
# How it was run: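 Salts or free base (ca 50 mg) suspended in 1 ml of buffered 0.9% saline (pH 3.5–6.5), 0.7–1.1% saline or deionised water, agitated 24 h at 25° C. Filtrates analysed by HPLC with single-point calibration; solubility expressed as RPL554 free base, not salt.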
# [3] = Solubility of RPL554 and salts in pMDI propellant systems; type: physicochemical
# How it was run: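 Ten actuations from each pMDI, three replicates per formulation, were filtered through a 0.20 μm filter into a vial cooled in dry ice/acetone, with about 10 s shaking between shots. The filtrate was evaporated to dryness, the residue recovered in 1 mL recovery solution and quantified by HPLC. The percent solubilised was taken against the starting RPL554 mass in the canister, computed from theoretical molecular weights of free base and salts.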
# [4] = Primary particle size analysis by laser light diffraction (Mastersizer 2000); type: physicochemical; settings: micronised, mean n=3
# Method: A Mastersizer 2000 fitted with a Scirocco 2000 dry powder dispersion unit (Malvern Instruments Ltd, UK) was used to analyse the primary particle size of the micronised RPL554 and salt variants. The salts (50 mg) were automatically sampled via a vibrating feed control at a feeder rate of 60% and dispersed in compressed air at a pressure of 3 bar.
# [5] = RPL554 content and content uniformity of 1% w/w lactose powder blends; type: physicochemical; settings: for Measured Blend Content (% Theoretical): 1% w/w RPL554 variant: lactose powder blend, expressed as RPL554 base; for **Adjusted RPL554 Content per capsule: per 20 mg capsule of 1% w/w lactose blend, adjusted for measured blend content (% theoretical), as RPL554 base
# How it was run: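 RPL554 free base or salt was sieved (38 μm) with some lactose, mortar-mixed with the rest, and Turbula-blended for 10 min at 46 rpm to give 1% w/w blends. For uniformity, ~20 mg samples from each blend were diluted to 10 mL, sonicated for 3 min and assayed by HPLC.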
# [6] = Aerosol performance of DPI formulations (Cyclohaler, NGI); type: physicochemical; settings: for †Measured Mass of 1% w/w Blend Delivered per capsule / ††RPL554 Emitted (μg) per capsule (B): Cyclohaler; for †Measured Mass of 1% w/w Blend Delivered per capsule: 5 capsules containing 20 mg powder blend, mass from weight change of capsule-loaded device; for ††RPL554 Emitted (μg) per capsule (B): NGI, mass determined from HPLC analysis of recovered samples; for ††RPL554 Emitted (μg) per capsule (B) / Calculated RPL554 Content (μg) per capsule (A): as RPL554 base; for Calculated RPL554 Content (μg) per capsule (A): calculated from delivered blend mass and measured blend content
# How it was run: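 Capsules held 20 mg of 1% w/w RPL554 free base or salt:lactose blend (200 μg salt, not adjusted for molecular weight). Fired from Cyclohaler at 90 L/min for 2.7 s into NGI with pre-separator, 5 capsules per formulation; drug recovered from device, induction port and stages to derive ED, FPD, FPF.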
# [7] = HFA 227: 10% Ethanol: 0.1% Tween
# [8] = in HFA 134, listed as Ethane-1,2-disulfonate hemi-salt
# [9] = in HFA 134 with Ethanol/Tween, listed as Ethane-1,2-disulfonate hemi-salt
# [10] = in HFA 134 with Ethanol/Tween, hydrochloride
smiles,measurement,setting,value
"COc1cc2c(cc1OC)-c1c/c(=N\c3c(C)cc(C)cc3C)n(CCNC(N)=O)c(=O)n1CC2 [Ethane-1,2-disulfonate, RPL554 ethane-1,2-disulfonate]",pH of aqueous suspension/solution,"[1]; listed as Ethane-1,2-disulfonic",3.72
same,Solubility as RPL554 (mg/ml) in 0.7 w/w % Saline,[2],4.79 mg/mL
same,Estimated Solubilised RPL554 μg per 50 μL actuation,[3]; [7],0.11 µg
same,Solubility RPL554,[3]; [7],1.69 µg/g
same,Estimated RPL554 solubilised (%),"[3]; HFA 227: 10% Ethanol: 0.1% Tween, listed as Ethane-1,2-disulfonate hemi-salt",0.07%
same,Solubility RPL554 (μg/g),"[3]; in HFA 134, BLQ = below limit of quantitation (0.06 μg/mL), listed as Ethane-1,2-disulfonate hemi-salt",BLQ
same,Calculated RPL554 solubilised (%),[3]; [8],BLQ
same,Calculated Solubilised RPL554 μg per 50 μL actuation,[3]; [8],BLQ
same,Solubility RPL554,[3]; in HFA 134 with Ethanol/Tween,5 µg/g
same,Estimated RPL554 solubilised (%),[3]; [9],0.20%
same,Estimated Solubilised RPL554 μg per 50 μL actuation,[3]; [9],0.34 µg
same,Solubility RPL554,[3]; [9],5.13 µg/g
same,Calculated RPL554 solubilised (%),[3]; in HFA 227,BLQ
same,Calculated Solubilised RPL554 μg per 50 μL actuation,[3]; in HFA 227,BLQ
same,Solubility RPL554 (μg/g),[3]; in HFA 227,BLQ
same,D (0.1) (μm),[4],0.52 μm
same,D (0.5) (μm),[4],1.25 μm
same,D (0.9) (μm),[4],2.78 μm
same,Measured Blend Content (% Theoretical),[5],80.18 % Theoretical
same,**Adjusted RPL554 Content per capsule,[5],133.73 µg
same,†Measured Mass of 1% w/w Blend Delivered per capsule,[6],19.90 mg
same,††RPL554 Emitted (μg) per capsule (B),[6],87.91 µg
same,Calculated RPL554 Content (μg) per capsule (A),[6],133.06 µg
"COc1cc2c(cc1OC)-c1c/c(=N\c3c(C)cc(C)cc3C)n(CCNC(N)=O)c(=O)n1CC2 [Hydrochloride, RPL554 hydrochloride]",pH of aqueous suspension/solution,"[1]; listed as Hydrochloric anhydrous source, hydrochloride",3.68
same,pH of aqueous suspension/solution,"[1]; listed as Hydrochloric aqueous source, hydrochloride",3.84
same,Solubility as RPL554 (mg/ml) in 0.7 w/w % Saline,[2]; hydrochloride,2.85 mg/mL
same,Solubility as RPL554 (mg/ml) in 0.9 w/w % Saline,[2]; hydrochloride,1.93 mg/mL
same,Solubility as RPL554 (mg/ml) in 1.1 w/w % Saline,[2]; hydrochloride,2.48 mg/mL
same,Solubility as RPL554 (mg/ml) in Water,[2]; hydrochloride,12.66 mg/mL
same,solubility at 24 h,"[2]; phosphate buffer in 0.9% w/w saline, 25 °C, pH 6.5, aqueous buffer, thermodynamic from solid, in saline 0.9% w/w, read-out: Solubility as RPL554 (mg/ml) in buffer solution pH 6.5, Phosphate",0.02 mg/mL
same,Solubility RPL554 (μg/g),"[3]; in HFA 134, BLQ = below limit of quantitation (0.06 μg/mL), hydrochloride",BLQ
same,Calculated RPL554 solubilised (%),"[3]; in HFA 134, hydrochloride",BLQ
same,Calculated Solubilised RPL554 μg per 50 μL actuation,"[3]; in HFA 134, hydrochloride",BLQ
same,Estimated RPL554 solubilised (%),[3]; [10],5.27%
same,Estimated Solubilised RPL554 μg per 50 μL actuation,[3]; [10],9.79 µg
same,Solubility RPL554,[3]; [10],149.17 µg/g
same,Calculated RPL554 solubilised (%),[3]; in HFA 227,BLQ
same,Calculated Solubilised RPL554 μg per 50 μL actuation,[3]; in HFA 227,BLQ
same,Solubility RPL554 (μg/g),[3]; in HFA 227,BLQ
same,D (0.1) (μm),[4]; hydrochloride,0.53 μm
same,D (0.5) (μm),[4]; hydrochloride,1.37 μm
same,D (0.9) (μm),[4]; hydrochloride,3.47 μm
same,Measured Blend Content (% Theoretical),[5]; hydrochloride,84.42 % Theoretical
same,**Adjusted RPL554 Content per capsule,[5]; hydrochloride,156.86 µg
same,†Measured Mass of 1% w/w Blend Delivered per capsule,[6]; hydrochloride,20.14 mg
same,††RPL554 Emitted (μg) per capsule (B),[6]; hydrochloride,102.27 µg
same,Calculated RPL554 Content (μg) per capsule (A),[6]; hydrochloride,157.96 µg
"COc1cc2c(cc1OC)-c1c/c(=N\c3c(C)cc(C)cc3C)n(CCNC(N)=O)c(=O)n1CC2 [Sulfate, RPL554 sulfate]",pH of aqueous suspension/solution,[1]; listed as Sulfuric - aqueous solution,1.87
same,Solubility as RPL554 (mg/ml) in 0.7 w/w % Saline,[2],2.78 mg/mL
same,Solubility as RPL554 (mg/ml) in 0.9 w/w % Saline,[2],1.94 mg/mL
same,Solubility as RPL554 (mg/ml) in 1.1 w/w % Saline,[2],1.35 mg/mL
same,Solubility as RPL554 (mg/ml) in Water,[2],12.11 mg/mL
same,Calculated RPL554 solubilised (%),[3]; in HFA 134,BLQ
same,Calculated Solubilised RPL554 μg per 50 μL actuation,[3]; in HFA 134,BLQ
same,Solubility RPL554 (μg/g),"[3]; in HFA 134, BLQ = below limit of quantitation (0.06 μg/mL)",BLQ
same,Estimated RPL554 solubilised (%),[3]; in HFA 134 with Ethanol/Tween,2.84%
same,Estimated Solubilised RPL554 μg per 50 μL actuation,[3]; in HFA 134 with Ethanol/Tween,4.71 µg
same,Solubility RPL554,[3]; in HFA 134 with Ethanol/Tween,73.19 µg/g
same,Calculated RPL554 solubilised (%),[3]; in HFA 227,BLQ
same,Calculated Solubilised RPL554 μg per 50 μL actuation,[3]; in HFA 227,BLQ
same,Solubility RPL554 (μg/g),[3]; in HFA 227,BLQ
same,D (0.1) (μm),[4],0.51 μm
same,D (0.5) (μm),[4],1.12 μm
same,D (0.9) (μm),[4],2.30 μm
same,Measured Blend Content (% Theoretical),[5],73.50 % Theoretical
same,**Adjusted RPL554 Content per capsule,[5],121.95 µg
same,†Measured Mass of 1% w/w Blend Delivered per capsule,[6],19.78 mg
same,††RPL554 Emitted (μg) per capsule (B),[6],79.35 µg
same,Calculated RPL554 Content (μg) per capsule (A),[6],120.61 µg
